Measurements reported in patent US20140056834A1, “COSMETIC COMPOSITION COMPRISING CHRYSOPHANOL AS ACTIVE INGREDIENT FOR SKIN WHITENING” (PUKYONG NATIONAL UNIVERSITY INDUSTRY-UNIVERSITY C, priority 2012, published 2014).

Columns and labels:
B16F1 cells [1] = test: Melanin content in α-MSH-stimulated B16F1 cells; assay type: cell-based, mouse; conditions: α-MSH 100 nM, 72 h
Procedure: The melanin content was determined in accordance a procedure described previously (Hosoi et al., 1985) with slight modifications.
Briefly, B16F1 cells were seeded at a density of 2×10^4 cells per well in 24-well culture plates and then incubated for 24 h. Then, cells were treated with various concentrations ([…]) of chrysophanol. After 1 h, α-MSH (100 nM) was added and incubated for 72 h. Then, cells were washed twice with PBS and dissolved in 1 N NaOH by 30 min of boiling at 60° C. The cell lysates were centrifuged for 5 min at 5000 g and absorbance of the supernatant was measured at 405 nm.

mushroom tyrosinase = test: Mushroom tyrosinase assay (tyrosinase inhibitory activity); assay type: biochemical; conditions: L-tyrosine substrate, different concentrations, 30 min at 37° C.
Procedure: The inhibitory effect on tyrosinase was measured using the spectrophotometric method, based on the hydroxylation of […] in mushroom tyrosinase assay.
A total of 10 μl of each chrysophanol with different concentrations and 20 μl of mushroom tyrosinase (1000 units/ml) in 50 mM phosphate buffer (pH 6.5) were added to 170 μl of an assay mixture containing a ratio of 10:10:9 of 1 mM L-tyrosine solution, 50 mM phosphate buffer (pH 6.5), and distilled water in a 96-well microplate. After 30 min of incubation at 37° C., the absorbance of the mixture was determined at 490 nm using a microplate reader (Tecan Austria GmbH, Austria).

[2] = test system: tyrosinase protein in mouse melanoma B16F1 cells; test: Tyrosinase protein expression by western blot analysis; assay type: cell-based; conditions: α-MSH
Procedure: For the western blot analysis, B16F1 cells were treated with different concentrations of chrysophanol compound, added with α-MSH, incubated for a predetermined time, and then the cells were lysed with RIPA buffer (Sigma-Aldrich Corp., St. Louis, USA) and centrifuged. After the centrifugation, the same amount (15 μg) of protein in cell lysate supernatants were analyzed on 10% SDS-PAGE and proteins were blotted on an immuno-blot nitro-cellulose membrane and blocked with 5% BSA in TBS containing 0.1% Tween 20 (TBS-T) for at least 1 h and hybridized with the primary monoclonal antibodies (Santa Cruz Biotechnology Inc., CA, USA). All the primary monoclonal antibodies were diluted with TBS-T (1:1000). The protein bindings were detected using the secondary antibody conjugated to horseradish peroxidase and enhanced using chemiluminiscence ECL assay kit (Amersham Pharmacia Biosciences, England, UK) according to the manufacturer's instructions and imaged on a LAS-3000® Luminescent image analyzer (Fujifilm, Life Science, Tokyo, Japan). T

B16F1 cells [3] = test: Determination of cytotoxicity by MTT method; assay type: cell-based, mouse; conditions: 10 and 50 μM, 24 h incubation
Procedure: The mouse melanoma B16F1 cells were acquired from the American Type Culture Collection (ATCC, Manassas, Va.) and were cultured in Dulbecco's modification of eagle's medium (DMEM, GIBCO, New York, USA) containing 100 μg/ml penicillin-streptomycin, […] fetal bovine serum (FBS) and maintained at 37° C., 5% CO2. Cytotoxicity levels of the isolated chrysophanol compound from Microsporum sp. on B16F1 cells were measured using MTT (3-(4,5-dimethyl[…])-2,5-diphenyltetrazolium bromide) method. Briefly, B16F1 cells were cultured in 96-well plates at a density of 5×10^3 cells/well. After 24 h, cells were treated with different concentrations (10, 50, 100 μM) of chrysophanol compound. After the next 24 h of incubation, cells were washed two times with PBS and 100 μl of MTT solution (1 mg/ml) was added to each well. After next 4 h of incubation, MTT solution in each well was removed and then 100 μl of dimethyl-sulfoxide (DMSO) were added to solubilize the formazan salt. The optical density was measured at 540 nm by using UV microplate reader (Tecan Austria GmbH, Groedig, Austria). Relative cell viability was calculated compared to the non-treated blank group.

SMILES: Cc1cc(O)c2c(c1)C(=O)c1cccc(O)c1C2=O [chrysophanol]
- melanin content compared with positive control kojic acid (B16F1 cells [1]; B16F1 cells, 50 μM): almost the same as that of kojic acid
- melanin content (B16F1 cells [1]; B16F1 cells, 5, 10, 50 μm chrysophanol): decrease in melanin content in B16F1 cells by the treatment of chrysphanol in a dose-dependent manner
- tyrosinase inhibitory activity (mushroom tyrosinase): tyrosinase inhibitory activity was observed by chrysophanol in a dose-dependent manner
- tyrosinase protein expression ([2]; 20 μM): significantly inhibited expression of tyrosinase protein
- tyrosinase protein expression ([2]; different concentrations): dose-dependent inhibition of tyrosinase protein expression
- cytotoxicity (relative cell viability, MTT) (B16F1 cells [3]): no cytotoxicity
